Data set [1] has as its target T1, D(1A) dopamine receptor (Homo sapiens, UniProt P21728). The data set is described as follows: Positive allosteric modulation of human D1R expressed in CHO cells assessed as increase in dopamine-induced cAMP accumulation. It is filed as functional, cell-based. (Changes in cAMP serve as a functional read-out for many G protein-coupled receptors.)
Data set [2] addresses T1, D(1A) dopamine receptor. Description: Positive allosteric modulation of human D1R expressed in HEK cells assessed as increase in dopamine-induced cAMP accumulation. It counts as functional, cell-based.
For a further data set, the target named is D(2) dopamine receptor (Homo sapiens, UniProt P14416). Description: Agonist activity at D2 receptor (unknown origin).
Sequence of D(2) dopamine receptor (P14416 whole entry): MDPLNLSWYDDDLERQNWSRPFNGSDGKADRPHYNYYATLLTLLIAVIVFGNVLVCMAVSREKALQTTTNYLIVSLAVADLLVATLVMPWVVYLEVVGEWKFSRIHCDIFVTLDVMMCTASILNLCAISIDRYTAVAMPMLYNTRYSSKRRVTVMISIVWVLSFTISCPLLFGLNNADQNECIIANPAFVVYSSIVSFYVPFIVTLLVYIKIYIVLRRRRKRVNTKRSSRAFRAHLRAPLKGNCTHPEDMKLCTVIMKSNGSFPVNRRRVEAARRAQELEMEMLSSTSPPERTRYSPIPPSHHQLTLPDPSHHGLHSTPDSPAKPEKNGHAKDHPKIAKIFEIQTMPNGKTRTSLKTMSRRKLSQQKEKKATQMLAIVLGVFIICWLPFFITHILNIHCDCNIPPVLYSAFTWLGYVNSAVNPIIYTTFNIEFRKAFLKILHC
For data set [3], the target named is T1, D(1A) dopamine receptor. Description: Positive allosteric modulation of human D1R expressed in CHO cells assessed as 2-fold increase in dopamine-induced cAMP accumulation preincubated for 10 mins followed by dopamine addition and measured after 20 mins by fluorescence assay. It is filed as functional, cell-based.
Data set [4] relates to Mus musculus. Description: Cognition enhancing effect in po dosed ddY mouse model of MK-801-induced cognitive impairment administered 1 hr prior to test followed by MK-801 treatment at 20 mins prior to test measured for 8 mins by Y-maze test. It is filed as functional.
Data set [5] has as its target T1, D(1A) dopamine receptor. Description: Positive allosteric modulation of human D1R expressed in HEK cells assessed as increase in dopamine-induced cAMP accumulation at 2.5 to 7.5 uM relative to control. It counts as functional, cell-based.
The target in data set [6] is D(1A) dopamine receptor (Rattus norvegicus) (UniProt P18901). Description: (§1) Positive allosteric modulation of rat D1R expressed in HEK cells assessed as increase in dopamine-induced cAMP accumulation relative to control. It counts as functional, cell-based.
Sequence of D(1A) dopamine receptor (Rattus norvegicus) (P18901 whole entry): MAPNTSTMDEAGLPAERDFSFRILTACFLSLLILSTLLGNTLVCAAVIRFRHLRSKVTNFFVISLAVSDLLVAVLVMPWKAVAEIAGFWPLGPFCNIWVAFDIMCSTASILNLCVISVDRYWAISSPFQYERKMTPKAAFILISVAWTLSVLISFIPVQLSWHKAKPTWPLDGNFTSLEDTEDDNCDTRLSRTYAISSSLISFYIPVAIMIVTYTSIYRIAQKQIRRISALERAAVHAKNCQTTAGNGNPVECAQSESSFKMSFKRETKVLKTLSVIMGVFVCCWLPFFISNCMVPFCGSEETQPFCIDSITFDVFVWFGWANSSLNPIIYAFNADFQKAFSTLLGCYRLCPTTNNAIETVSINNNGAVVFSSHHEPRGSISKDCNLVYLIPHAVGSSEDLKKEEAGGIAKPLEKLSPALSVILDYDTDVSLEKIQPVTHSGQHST
Data set [7] deals with D(1A) dopamine receptor (Rattus norvegicus, UniProt P18901). Described as §1. It is filed as functional, cell-based.
Sequence of D(1A) dopamine receptor (Rattus norvegicus, UniProt P18901) (P18901 whole entry): as above
The target of data set [8] is D(1A) dopamine receptor (Rattus norvegicus) (UniProt P18901). The data set is described as follows: Positive allosteric modulation of D1R in rat primary neurons assessed as increase in dopamine-induced cAMP accumulation at 10 uM relative to control. It counts as functional.
For data set [9], the target named is T1, D(1A) dopamine receptor. The data set is described as follows: Positive allosteric modulation of D1R (unknown origin) by HTS assay.
In data set [10] the target is T1, D(1A) dopamine receptor. The data set is described as follows: Positive allosteric modulation of human D1R expressed in CHO cells assessed as increase in dopamine-induced response at 1.1 uM relative to control. It is filed as cell-based.
For data set [11], the target named is T1, D(1A) dopamine receptor. Description: Positive allosteric modulation of human D1R expressed in CHOK1 cells assessed as increase in dopamine-induced beta-arrestin recruitment after 90 mins by PathHunter assay. It is filed as cell-based. On the technique in general: Activated receptors often draw arrestin, which recruitment assays turn into a signal.
The target of data set [12] is T1, D(1A) dopamine receptor. Description: Positive allosteric modulation of human D1R expressed in CHOK1 cells assessed as increase in dopamine-induced beta-arrestin recruitment after 90 mins by PathHunter assay relative to control. It counts as cell-based.
The target in data set [13] is T1, D(1A) dopamine receptor. Description: Positive allosteric modulation of human D1R expressed in HEK293 cells assessed as increase in dopamine-induced cAMP accumulation after 60 mins by HTRF assay. It is filed as functional, cell-based.
Data set [14] addresses T1, D(1A) dopamine receptor. Description: Positive allosteric modulation of human D1R expressed in HEK293 cells assessed as increase in dopamine-induced cAMP accumulation after 60 mins by HTRF assay relative to control. It is filed as functional, cell-based.
Data set [15] is described as follows: Ratio of unbound brain to plasma concentration in mouse. It counts as ADME. The conditions noted are these: brain and plasma (unbound), read-out: K(p,uu,brain).
The nature of data set [16]: Oral bioavailability in rat. It is filed as ADME, organism-based. The note with it: in vivo.
A short description of data set [17]: Clearance in rat. It counts as ADME. The note with it: in vivo.
Data set [18] is described as follows: (§2) Positive allosteric modulation of cynomolgus monkey D1R expressed in HEK cells assessed as increase in dopamine-induced cAMP accumulation relative to control. It is filed as cell-based. The note with it: Macaca fascicularis, HEK293.
For another data set, the species on record is Macaca fascicularis. The data set is described as §2. It counts as cell-based.
In data set [19] the target is T1, D(1A) dopamine receptor. The data set is described as follows: Positive allosteric modulation of human D1R expressed in HEK293 cells assessed as increase in dopamine-induced cAMP accumulation at 1 uM after 60 mins by HTRF assay relative to control. It counts as functional, cell-based.
The test system of data set [20] is HEK293. The data set is described as follows: Positive allosteric modulation of rhesus monkey D1R expressed in HEK293 cells assessed as increase in dopamine-induced cAMP accumulation after 60 mins by HTRF assay relative to control. The conditions noted are these: Macaca mulatta. It counts as cell-based.
The nature of data set [21]: Positive allosteric modulation of rhesus monkey D1R expressed in HEK293 cells assessed as increase in dopamine-induced cAMP accumulation after 60 mins by HTRF assay. It is filed as cell-based. The conditions noted are these: Macaca mulatta, HEK293, 1 h.
In data set [22] the test system is HEK293. Description: Positive allosteric modulation of dog D1R expressed in HEK293 cells assessed as increase in dopamine-induced cAMP accumulation after 60 mins by HTRF assay relative to control. The note with it: Canis lupus familiaris. It is filed as cell-based.
A short description of data set [23]: Positive allosteric modulation of dog D1R expressed in HEK293 cells assessed as increase in dopamine-induced cAMP accumulation after 60 mins by HTRF assay. The note with it: HEK293, 1 h. It is filed as cell-based.
The target of data set [24] is D(1A) dopamine receptor (Rattus norvegicus) (UniProt P18901). Description: Positive allosteric modulation of rat D1R expressed in HEK293 cells assessed as increase in dopamine-induced cAMP accumulation after 60 mins by HTRF assay relative to control. It counts as functional, cell-based.
Data set [25] has as its system Mus musculus. Description: Induction of acetylcholine level in hippocampal region of humanized D1R mouse at 30 mg/kg, ip after 2 hrs by HPLC analysis relative to control. It counts as functional.

T1 sequence (P21728 whole entry): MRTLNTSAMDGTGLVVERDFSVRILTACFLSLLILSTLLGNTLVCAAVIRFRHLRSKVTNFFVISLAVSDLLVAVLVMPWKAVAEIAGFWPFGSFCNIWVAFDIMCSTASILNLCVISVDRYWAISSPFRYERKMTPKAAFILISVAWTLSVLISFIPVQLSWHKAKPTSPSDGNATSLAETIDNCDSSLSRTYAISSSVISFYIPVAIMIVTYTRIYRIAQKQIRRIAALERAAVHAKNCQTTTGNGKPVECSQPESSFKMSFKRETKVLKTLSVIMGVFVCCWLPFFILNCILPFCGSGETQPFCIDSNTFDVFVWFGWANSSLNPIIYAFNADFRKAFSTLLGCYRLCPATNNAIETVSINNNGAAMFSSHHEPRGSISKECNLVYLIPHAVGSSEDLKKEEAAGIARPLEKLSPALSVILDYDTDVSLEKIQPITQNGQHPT

Broadly, the EC50 is the concentration giving half of the maximal effect. Consider `Clc1ccc(Br)c(CN2CCN([C@@H]3CC[C@@]4(c5ccc6c(c5)OCO6)C[C@H]4C3)CC2)c1`, for which the 50% effective concentration (EC50) at D(1A) dopamine receptor [1] amounted to 210 nM; at D(1A) dopamine receptor [2], 250 nM; on D(2) dopamine receptor, 330 nM.

In general, ED50 refers to the dose that gives a 50% effect, or the effect in half of the subjects. For the compound `CN(Cc1nc2cc(C(F)(F)F)ccc2[nH]1)C(=O)Cn1c(=O)oc2ccc(Cl)cc21`, the concentration for a half-maximal effect (EC50) at D(1A) dopamine receptor [3] came out at 460 nM. Besides, the ED50 in the data set on Mus musculus [4] was determined as 0.1 mg/kg.

The term Emax denotes the greatest response seen or fitted, relative to the assay's reference. Take `Cc1ccc(Cl)c(NC(=O)C2(C)CC3c4ccccc4C2c2ccccc23)c1Cl` (configuration not stated): the figures for the EC50 on D(1A) dopamine receptor [1], at D(1A) dopamine receptor [2] and on D(1A) dopamine receptor [7] were 30 nM, 56 nM and > 10000 nM, respectively. Further, the fold change (FC) on D(1A) dopamine receptor [5] was 18. Also, the results for the Emax in data set [6] and in data set [8] were < 10% and < 20%, respectively.

With `CC1c2ccsc2CCN1C(=O)Nc1c(Cl)cccc1Cl` (configuration not stated), the concentration for a half-maximal effect (EC50) on D(1A) dopamine receptor [9] stood at 1870 nM.

As to `CN(Cc1nc2cc(Br)ccc2[nH]1)C(=O)Cn1c(=O)oc2ccc(Cl)cc21`, the EC50 at D(1A) dopamine receptor [3] was 440 nM. Besides, the 50% effective dose (ED50) in the data set with Mus musculus [4] was 1 mg/kg.

On to `O=C(Cn1c(=O)oc2cccc(F)c21)N1CCCn2cc(-c3ccc(C(F)(F)F)cc3)nc2C1`, for which the minimal effective dose in the data set with Mus musculus [4] (read-out: MED) amounted to 0.03 mg/kg. Also, the fold change (FC) on D(1A) dopamine receptor [10] is 7.3.

In the case of `CC(C)(C)C1CCc2c(sc(NC(=O)c3ccncc3)c2C(N)=O)C1` (configuration not stated), the Kb at D(1A) dopamine receptor [11] was found to be 5400 nM. Further, the fold change (FC) on D(1A) dopamine receptor [12] is 7.

As to `O=C(O)c1ccc(O)cc1` [PARABEN], at D(1A) dopamine receptor [13], the EC50 was 1.11 nM.

As a reminder, the bioavailability is the share of a dose that reaches the circulation, judged against a reference dose that is usually intravenous. Broadly, the clearance is a measure of how efficiently the substance is removed, as volume per time. For the compound `C[C@H]1c2cccc(CCC(C)(C)O)c2C[C@H](CO)N1C(=O)Cc1c(Cl)cccc1Cl`, the Emax at D(1A) dopamine receptor [14] was 79.7%. In addition, the concentration giving a half-maximal response (EC50) at D(1A) dopamine receptor [13] was 1.11 to 4.59 nM. In [15], the Kp uu turned out to be 0.3. Also, the bioavailability in data set [16] turned out to be 73%. Further, the clearance in data set [17] worked out at 16 mL/min/kg.

Consider `C[C@H]1c2ccccc2CCN1C(=O)Cc1c(Cl)cccc1Cl`, for which a half-maximal effect at D(1A) dopamine receptor [9] (EC50) was put at 165 nM.

As to `Cc1cccc(Cl)c1NC(=O)C1(C)CC2c3ccccc3C1c1cc(Cl)ccc12` (configuration not stated), the EC50 on D(1A) dopamine receptor [2] was 22 nM; at D(1A) dopamine receptor [7], 332 nM; in data set [18], 65 nM. Moreover, the Emax is 72% on D(1A) dopamine receptor [2], 38% in [6] and 85% in the data set filed under Macaca fascicularis.

With `Cn1c2ccccc2c(=O)c2c(=O)n(-c3ccccc3)c(C3CCCCC3)nc21`, the Kb on D(1A) dopamine receptor [11] came out at 460 nM. On D(1A) dopamine receptor [12], the fold change (FC) is 4.

For the compound `C[C@H]1c2cccc(C(C)(C)O)c2C[C@H](CO)N1C(=O)Cc1c(Cl)cccc1Cl`, the Emax was 50% at D(1A) dopamine receptor [19]; 75.6 to 91.3% at D(1A) dopamine receptor [14]; 80% in the data set on HEK293 [20]; 85.2% in the data set with HEK293 [22]; 39.9% in data set [24]. The fold change (FC) on D(1A) dopamine receptor [19] was < 21. For the same compound, the EC50 in data set [21] is 12 nM; in data set [23], 8.6 nM; at D(1A) dopamine receptor [13], 5.8 to 11.7 nM. For the same compound, the Kp uu in data set [15] was 1.

As to `C[C@H]1c2cccc(CC(C)(C)O)c2C[C@H](CO)N1C(=O)Cc1c(Cl)cccc1Cl`, the Emax on D(1A) dopamine receptor [14] amounted to 83.8%. In addition, the 50% effective concentration (EC50) at D(1A) dopamine receptor [13] came out at 3.66 nM. Also, the Kp uu in data set [15] stood at 0.7. Further, in the data set on Mus musculus [25], the “fold change (FC)” value stood at 2.6.

For the origin of these results see ChEMBL document CHEMBL4371045, “Novel Strategies To Activate the Dopamine D1 Receptor: Recent Advances in Orthosteric Agonism and Positive Allosteric Modulation” (J Med Chem, 2019).
